The record followed here is ChEMBL document CHEMBL3872234, “Polyfluorinated salicylic acid derivatives as analogs of known drugs: Synthesis, molecular docking and biological evaluation” (Bioorg Med Chem, 2017).

Several values for one entry are separate records, joined by “and”; a condition that tells them apart may be missing. Identical values can stand only once. Where only a bound is given, the exact number is not on record here.

Data set [1] is described as follows: Acute toxicity in CD-1 mouse assessed as viability at 300 mg/kg, ip measured up to 14 days. The data set is classed as organism-based. The note with it: in vivo.
The target in data set [2] is T1, Prostaglandin G/H synthase 1 (Ovis aries) (UniProt P05979).
T1 sequence (whole entry): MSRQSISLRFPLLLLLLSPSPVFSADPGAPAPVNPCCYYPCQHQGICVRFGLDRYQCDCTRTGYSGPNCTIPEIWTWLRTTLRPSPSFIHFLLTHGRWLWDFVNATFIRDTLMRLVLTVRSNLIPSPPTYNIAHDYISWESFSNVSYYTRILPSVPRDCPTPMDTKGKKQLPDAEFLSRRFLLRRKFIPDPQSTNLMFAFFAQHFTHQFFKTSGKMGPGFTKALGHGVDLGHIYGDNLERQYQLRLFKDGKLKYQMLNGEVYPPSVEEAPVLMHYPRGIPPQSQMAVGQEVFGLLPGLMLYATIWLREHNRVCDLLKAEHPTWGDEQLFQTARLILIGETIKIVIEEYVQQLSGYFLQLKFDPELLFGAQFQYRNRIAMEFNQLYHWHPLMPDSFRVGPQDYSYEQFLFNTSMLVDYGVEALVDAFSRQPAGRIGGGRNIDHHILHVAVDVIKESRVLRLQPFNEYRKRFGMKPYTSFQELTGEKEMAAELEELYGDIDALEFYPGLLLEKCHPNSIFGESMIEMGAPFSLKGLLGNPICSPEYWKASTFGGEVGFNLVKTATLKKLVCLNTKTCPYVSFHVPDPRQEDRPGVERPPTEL
The data set is described as follows: Inhibition of ovine COX-1 assessed as reduction in PGG2 production using ADHP as substrate at 200 uM incubated for 5 mins followed by substrate addition measured after 2 mins by fluorescence assay.

In data set [3] the target is T1, Prostaglandin G/H synthase 1 (Ovis aries). The data set is described as follows: Inhibition of ovine COX-1 assessed as reduction in PGG2 production using ADHP as substrate at 2 uM incubated for 5 mins followed by substrate addition measured after 2 mins by fluorescence assay.
The nature of data set [4]: Acute toxicity in CD-1 mouse assessed as viability at 50 mg/kg, ip measured up to 14 days. It counts as organism-based. The settings on record: in vivo, read-out: Activity.
The subject of data set [5] is Rattus norvegicus. Briefly: Analgesic activity in rat assessed as latent period prolongation at 25 mg/kg, ip measured after 1 hr by hot plate test. It counts as functional.
Data set [6] is described as follows: Acute toxicity in CD-1 mouse assessed as viability at 150 mg/kg, ip measured up to 14 days. It counts as organism-based. The settings on record: in vivo.
Data set [7] in a line: Acute toxicity in CD-1 mouse assessed as viability at 100 mg/kg, ip measured up to 14 days. It counts as organism-based. The note with it: in vivo.
The nature of data set [8]: Permeability of the compound at pH 7.4 after 2 hrs by PAMPA. The data set is classed as ADME. The settings on record: read-out: Peff. For orientation: The PAMPA barrier holds no transporters, so it reflects passive diffusion.
For data set [9], the system named is Rattus norvegicus. The data set is described as follows: Antiinflammatory activity in rat carrageenan-induced paw edema model assessed as inhibition of paw swelling at 50 mg/kg, ip administered 30 mins prior to carrageenan challenge measured after 3 hrs. The data set is classed as functional. (In general: The carrageenan paw model is a standard test of acute inflammation.)

A short description of data set [10]: Acute toxicity in CD-1 mouse assessed as viability at 75 mg/kg, ip measured up to 14 days. It counts as organism-based. The note with it: in vivo, read-out: Activity.
Data set [11] in a line: Drug level in prisma HT buffer treated with 2-acetoxy-3,4,5,6-tetrafluorobenzoic acid at pH 5 to 7.4 by UV absorbance assay. The data set is classed as toxicity.
The subject of data set [12] is Rattus norvegicus. The data set is described as follows: Antiinflammatory activity in rat carrageenan-induced paw edema model assessed as inhibition of paw swelling at 25 mg/kg, ip administered 30 mins prior to carrageenan challenge measured after 5 hrs. The data set is classed as functional.
Data set [13] is described as follows: Permeability of the compound at pH 6.2 after 2 hrs by PAMPA. The settings on record: read-out: Peff. It counts as ADME.
Data set [14] has as its system Rattus norvegicus. The data set is described as follows: Antiinflammatory activity in rat carrageenan-induced paw edema model assessed as inhibition of paw swelling at 50 mg/kg, ip administered 30 mins prior to carrageenan challenge measured after 5 hrs. The data set is classed as functional.
A short description of data set [15]: Permeability of the compound at pH 5 after 2 hrs by PAMPA. The data set is classed as ADME. The note with it: read-out: Peff.
Data set [16] has as its system Rattus norvegicus. Briefly: Antiinflammatory activity in rat carrageenan-induced paw edema model assessed as inhibition of paw swelling at 25 mg/kg, ip administered 30 mins prior to carrageenan challenge measured after 3 hrs. The data set is classed as functional.
Data set [17] is described as follows: Drug level in prisma HT buffer treated with 2-acetoxy-3,4,5-trifluorobenzoic acid at pH 5 to 7.4 by UV absorbance assay. It counts as toxicity.

In the case of `CC(=O)Oc1c(C(=O)O)cc(F)c(F)c1F`, the survival at 336 h in [1] (read-out: Activity) came out at 0%; in data set [4], 100%; in data set [6] (read-out: Activity), 70%. Moreover, the inhibition in [2] is 18%; in [3], 35%. Moreover, the Activity in the data set on Rattus norvegicus [5] was found to be 71.2%.

On to `O=C(O)c1ccc(F)c(F)c1O`, for which the survival at 336 h in data set [1] (read-out: Activity) came to 33%; in data set [7] (read-out: Activity), 66%; in data set [6] (read-out: Activity), 66%.

In the case of `O=C(O)c1c(O)c(F)c(F)c(F)c1F` [listing 1 of 2 here], the results for the Papp at 2 h in data set [8], in data set [13] and in [15] were 1 nm/s, 5 nm/s and 186 nm/s, respectively. Further, the inhibition in vivo at 50 mg/kg in the data set on Rattus norvegicus [9] was 64%; with Rattus norvegicus [14], 56.5%. Further, the survival at 336 h in data set [1] (read-out: Activity) was 0%; in [10] it was 66%. The Drug metabolism entry in data set [11] is “Metabolite_Notdetected”. Further, in the data set on Rattus norvegicus [12], the inhibition in vivo at 25 mg/kg was found to be 33.1%. Besides, in the data set on Rattus norvegicus [5], the Activity is 143.2%.

For the molecule `CC(=O)Oc1c(F)c(F)c(F)c(F)c1C(=O)O`, the inhibition in vivo at 50 mg/kg with Rattus norvegicus [9] was found to be 65.6%; in the data set with Rattus norvegicus [14], 45.1%. In addition, the values for the survival at 336 h in data set [1] (read-out: Activity), in data set [4] and in [6] (read-out: Activity) were 0%, 100% and 80%, respectively. Moreover, the inhibition in vivo at 25 mg/kg in the data set with Rattus norvegicus [16] came out at 42.9%; with Rattus norvegicus [12] it was 56.8%. The Activity in the data set with Rattus norvegicus [5] was found to be 83.2%.

As for `CC(=O)Oc1ccccc1C(=O)O` [ASPIRIN], the Papp at 2 h in data set [8] turned out to be 47 nm/s; in data set [15], 51 nm/s. Besides, the results for the survival at 336 h in data set [1], in data set [7] and in data set [6] were 33%, 100% and 100%, respectively. Further, the figures for the inhibition in vivo at 25 mg/kg with Rattus norvegicus [16] and in the data set with Rattus norvegicus [12] were 30.6 to 56.2% and 29.4 to 44.9%, respectively. The inhibition in data set [2] came to 36%; in data set [3], 31%. In the data set on Rattus norvegicus [5], the Activity is reported as 57.9%.

With `COc1c(C(=O)O)cc(F)c(F)c1F`, the inhibition in vivo at 50 mg/kg in the data set with Rattus norvegicus [9] worked out at 40%; in the data set on Rattus norvegicus [14] it was 30%. Besides, the survival at 336 h in data set [1] (read-out: Activity) was 0%; in data set [4], 100%; in [6] (read-out: Activity), 80%. The inhibition in data set [3] is less than 10%. For the same molecule, the Activity with Rattus norvegicus [5] amounted to 73.2%.

On to `O=C([O-])c1cc(F)c(F)c(F)c1O.[Na+]`, for which the Activity with Rattus norvegicus [5] turned out to be 66.8%. For the same molecule, in [6] (read-out: Activity), the survival at 336 h turned out to be 66%.

As for `O=C(O)c1c(O)c(F)c(F)c(F)c1F` [listing 2 of 2 here], the inhibition was 39% and 31% in data set [2]; 34% and 59% in data set [3].

As for `O=C(O)Cc1ccccc1Nc1c(Cl)cccc1Cl` [DICLOFENAC], the inhibition in vivo at 25 mg/kg in the data set with Rattus norvegicus [16] was 64.4%; in the data set with Rattus norvegicus [12], 54.4%. Further, the Activity in the data set with Rattus norvegicus [5] is 56 - 102.3%.

For the molecule `O=C(O)c1cc(F)c(F)c(F)c1O`, the inhibition in vivo at 50 mg/kg in the data set with Rattus norvegicus [9] was determined as 46.7%; in the data set with Rattus norvegicus [14] it was 46.9%. The survival at 336 h in [1] (read-out: Activity) is 0%. Further, the Activity in the data set with Rattus norvegicus [5] worked out at 178.1%. For the same molecule, the Drug metabolism entry in [17] is given as “Metabolite_Notdetected”.

On to `CC(=O)Oc1c(F)cc(F)c(F)c1C(=O)O`, for which the inhibition in vivo at 25 mg/kg in the data set on Rattus norvegicus [16] is 37.3%; in the data set with Rattus norvegicus [12] it was 32.7%. Also, the Activity with Rattus norvegicus [5] was 86.5%.

With `COC(=O)c1cc(F)c(F)c(F)c1O`, the inhibition in vivo at 50 mg/kg in the data set on Rattus norvegicus [9] was determined as 40.3%. The survival at 336 h came to 0% in data set [1] (read-out: Activity), 100% in [7] (read-out: Activity) and 100% in data set [6] (read-out: Activity).

For the molecule `O=C(O)c1cc(F)c(F)cc1O`, the survival at 336 h was 33% in [1] (read-out: Activity), 100% in data set [7] (read-out: Activity) and 66% in data set [6] (read-out: Activity). In addition, the Activity with Rattus norvegicus [5] turned out to be 60.6%.

With `O=C(O)c1c(O)c(F)cc(F)c1F`, the inhibition in vivo at 25 mg/kg is 47% in the data set on Rattus norvegicus [16] and 41.7% with Rattus norvegicus [12]. Also, the Activity in the data set with Rattus norvegicus [5] is 60.3%. In addition, in [6] (read-out: Activity), the survival at 336 h was 66%.

`CC(=O)Oc1c(C(=O)O)ccc(F)c1F`: in [1] (read-out: Activity), the survival at 336 h was 33%. The inhibition in vivo at 25 mg/kg with Rattus norvegicus [12] was 35.3%. For the same molecule, the Activity in the data set with Rattus norvegicus [5] was 98.8%.

On to `COC(=O)c1c(O)c(F)c(F)c(F)c1F`, for which the survival at 336 h amounted to 0% in data set [1] (read-out: Activity), 100% in data set [4] and 90% in data set [6] (read-out: Activity). Further, the results for the inhibition in data set [2] and in [3] were 48% and 47%, respectively.

For the molecule `CC(=O)Oc1cc(F)c(F)cc1C(=O)O`, in data set [6] (read-out: Activity), the survival at 336 h was 100%.

`COc1c(F)c(F)c(F)c(F)c1C(=O)O`: the figures for the inhibition in vivo at 25 mg/kg in the data set with Rattus norvegicus [16] and in the data set on Rattus norvegicus [12] were 53.8% and 46.9%, respectively. The inhibition in data set [2] was determined as 64%; in data set [3], 48%. Moreover, the Activity in the data set on Rattus norvegicus [5] turned out to be 100.8%.

On to `O=C([O-])c1c(O)c(F)c(F)c(F)c1F.[Na+]`, for which the Papp at 2 h in data set [8] turned out to be 1 nm/s; in data set [13] it was 18 nm/s; in data set [15], 221 nm/s.

A word on the inhibition: it is the change of the read-out against control, counted positive when it falls. By inhibition in vivo is commonly meant the drop in the measured response relative to a control, in per cent.
